# Target: T1, mAdpn (Mus musculus, UniProt Q91WW7)
# T1 sequence (Q91WW7 1-413): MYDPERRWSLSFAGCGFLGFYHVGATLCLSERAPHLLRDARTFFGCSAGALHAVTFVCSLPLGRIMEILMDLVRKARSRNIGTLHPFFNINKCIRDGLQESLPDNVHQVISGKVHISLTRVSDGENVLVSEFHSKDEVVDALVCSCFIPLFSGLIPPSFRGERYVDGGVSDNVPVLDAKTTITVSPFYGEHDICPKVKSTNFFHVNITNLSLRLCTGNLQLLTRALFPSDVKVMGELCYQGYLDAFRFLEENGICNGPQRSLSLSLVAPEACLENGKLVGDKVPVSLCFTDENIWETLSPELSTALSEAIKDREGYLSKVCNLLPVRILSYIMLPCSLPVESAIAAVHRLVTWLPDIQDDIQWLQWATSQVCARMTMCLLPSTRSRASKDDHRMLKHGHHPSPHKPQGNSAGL
# Assay: radiometric LPAAT assay, TLC, Michaelis-Menten fit
# Assay type: biochemical
# Details: co-substrate LPA; labelled compound [1-14C]
compound,measurement,value
CCCCCCCC/C=C\CCCCCCCC(=O)SCCNC(=O)CCNC(=O)[C@H](O)C(C)(C)COP(=O)(O)OP(=O)(O)OC[C@H]1O[C@@H](n2cnc3c(N)ncnc32)[C@H](O)[C@@H]1OP(=O)(O)O [oleoyl-CoA],Km,12.5 µM

# Reference: article PMC3361708 (Cell Metabolism, 2012)
